# Data published in patent US4357344A, “Polybutylbenzylphenols and benzyl-3,4-methylenedioxybenzenes in insect population control” (The United States of America as represented by the …, priority 1979, dated 1982).
# What was measured:
# screwworm flies = test: Anti-procreant tests on screw-worm fly; type: in vivo
# Experimental: These tests were conducted on mass-reared screwworm flies which had been obtained as pupae from the screwworm fly plant at Mission, Texas. The flies were held in cages with water and undiluted corn syrup in a colony room maintained at about 27° C. and 60% relative humidity (RH) with a 12-hour photoperiod beginning at 6 a.m. Adults that emerged were lightly anesthetized with CO2 for ease of manipulation the same day.
# The mixtures obtained were fed to the flies in "Dixie" paper cups, 7 cm diameter, and rice hulls were placed on the surface of the food to prevent the flies from getting stuck in the viscous mixture.
# Initially, varying concentrations of a chemosterilant were fed to the flies for the first 5 days of life. Thereafter, the chemosterilant was replaced with pure corn syrup. On the 7th day, 3 replicates of 10 flies were stimulated to oviposit and the flies which oviposited were checked for insemination by an examination of the spermathecae for live sperms. The total number of eggs per fly was estimated and the hatchability of these eggs (fertility) was determined 24 hours later (at 37° C.). Observations were made to determine percentage of egg hatch.
# [1] = test system: Salmonella tester strains TA-100, TA-98, TA-1537; test: Ames' Salmonella/microsome mutagenicity procedure
# Experimental: The mutagenic activity of D, A, B, M, N, and CC were tested by the standard Ames' Salmonella/microsome procedure, which is reported to show better than 90% correlation with development of mammalian cancers (Ames et al., Mutation Research, Vol. 31, p. 347, 1975; McCann et al., Proc. Nat. Acad. Sci., Vol. 72, p. 5135, 1975). Tester strains TA-100, TA-98, TA-1537 and the plate test method were used, employing concentrations of 10, 100, 1000, and 10,000 […]. The metabolic activation mixture (S-9 mix) used the 9000 times g supernatant of Arochlor-1254-induced rat liver homogenate at a level of 100 μl per ml of S-9 mix.
# flies (family Muscidae) [2] = test: Oviposition inhibition tests (treated fly food; Examples 6-9); type: in vivo
# Outline: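 Compound mixed via acetone into sugar/dry milk/egg yolk fly food, solvent evaporated. Cages of 100 newly-emerged adults fed treated diet 6-7 days, then given moist CSMA larva-rearing medium for 4-6 h; cups examined for eggs.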
# [3] = test system: male flies (family Muscidae); test: Sterilization of treated males crossed with virgin untreated females; type: in vivo; details: 1.0% in food
# Experimental: The compound to be tested was administered in a standard fly food containing 6 parts of sugar, 6 parts of powdered non-fat dry milk, and 1 part of powdered egg yolk. Treated food was prepared by mixing an appropriate amount of a solution or suspension of CBCP in acetone with a batch of the food. The acetone was evaporated (4-6 hours) and the dry material was repulverized.
# These flies were maintained on untreated fly food. After 5 days, cups containing the larval-rearing medium was provided as previously described and a 100-egg sample was collected and place on moist larve-rearing medium. About a week after oviposition, examination was made to determine the percentage of hatched eggs and of pupae developed.
# Solubility in water = type: physicochemical
# Oral toxicity in mice = details: mouse, in vivo; oral, mice; read-out: Estimated LD50
# Experimental: (§1) Compounds D, A, and B were also assayed for oral toxicity in mice.
# mice = test: Oral toxicity in mice; details: mouse, in vivo, po
# Experimental: as §1
# flies (family Muscidae) [4] = test: Chemosterilancy tests (egg hatch and pupal development; Examples 6-9); type: in vivo
# Outline: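 Compound fed to flies in sugar/milk powder/egg yolk diet, applied in acetone that was then evaporated. 100 laid eggs per cup transferred onto larval rearing medium. Scored as percentage egg hatch and pupal development.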
compound,measurement,setting,value
"CC(C)(C)c1cc(Cc2ccccc2)c(O)c(C(C)(C)C)c1 [D, 2,4-Di-t-butyl-6-benzylphenol]",Inhibition of embryogenesis,screwworm flies; 0.01% in food,95.2%
same,Oviposition,screwworm flies; 0.01% in food,66.7%
same,"Survival, Female",screwworm flies; 0.01% in food,49.3%
same,"Survival, Male",screwworm flies; 0.01% in food,46.0%
same,Inhibition of embryogenesis,screwworm flies; 0.10% in food,100%
same,Oviposition,screwworm flies; 0.10% in food,95.0%
same,"Survival, Female",screwworm flies; 0.10% in food,88.7%
same,"Survival, Male",screwworm flies; 0.10% in food,55.0%
same,revertant frequencies,"[1]; 10-10,000 μg/plate in TA-100 and S-9",exceeded the mean control value plus two or three standard deviations
same,mutagenic response relative to known mutagenic agents which revert this strain,[1]; TA-100 and S-9,extremely weak
same,"Mortality, parent generation",flies (family Muscidae) [2]; 0.05% in food,0%
same,"Mortality, parent generation",flies (family Muscidae) [2]; 0.1% in food,0%
same,"Mortality, parent generation",flies (family Muscidae) [2]; 0.25% in food,0%
same,"Mortality, parent generation",flies (family Muscidae) [2]; 0.5% in food,0%
same,"Mortality, parent generation",flies (family Muscidae) [2]; 1.0% in food,0%
same,sterilization of males,[3],100%
same,solubility in water,Solubility in water,low solubility in water
same,LD50,Oral toxicity in mice,3430 mg/kg
same,oral toxicity (in words),mice,only slightly toxic
same,Egg hatch,flies (family Muscidae) [4]; 0.05% in food,90%
same,Pupal development,flies (family Muscidae) [4]; 0.05% in food,90%
same,Egg hatch,flies (family Muscidae) [4]; 0.1% in food,0%
same,Pupal development,flies (family Muscidae) [4]; 0.1% in food,0%
same,Egg hatch,flies (family Muscidae) [4]; 0.25% in food,0%
same,Pupal development,flies (family Muscidae) [4]; 0.25% in food,0%
same,Egg hatch,flies (family Muscidae) [4]; 0.5% in food,0%
same,Pupal development,flies (family Muscidae) [4]; 0.5% in food,0%
same,Egg hatch,flies (family Muscidae) [4]; 1.0% in food,0%
same,Pupal development,flies (family Muscidae) [4]; 1.0% in food,0%
